System: 276233-004-R-J1-PDC spheroids with HUVEC/MSC, viability
Experiment: Anticancer human tumor 276233-004-R-J1-PDC patient-derived colon adenocarcinoma cell line growth inhibition [TAK]
Settings: for IC50: curve of first compound; for viability, T/C: stronger effect = lower value
Text: Combinatorial screen of targeted agents with TAK-243 and ipatasertib in multi-cell type tumor spheroids
A high-throughput screen of multi-cell type tumor spheroids was designed to identify active combinations of targeted small molecules and TAK-243 or ipatasertib. Complex spheroids include a stromal component modeled by human endothelial cells (HUVEC) and fibroblasts modeled by human mesenchymal stem cells (MSCs). The concentration ranges selected for each drug and investigational agent were based upon clinically achievable concentrations if the clinical Cmax of the agent was known.
Compounds. The drugs and investigational agents: TAK-243 (785004), ipatasertib (767898), everolimus (733504), selumetinib (741078), bortezomib (756655), trametinib (758246), ixazomib (758254), vemurafenib (761431), dabrafenib (764134), sapanisertib (764658), alpelisib (765974), and copanlisib (816437), were obtained from the National Cancer Institute (NCI) Developmental Therapeutics Program Chemical Repository. The FDA-approved anticancer drug set is available from the NCI Developmental Therapeutics Program. […] The stock solutions were prepared in dimethyl sulfoxide (DMSO, Sigma-Aldrich, St. Louis, MO, cat. D2650) at 800-fold the tested concentration and stored at -70 degrees C prior to their use. All drugs and investigational agents were tested over a range starting from a high concentration at or near the clinical Cmax and decreasing in half-log increments. If the clinical Cmax for an agent had not been determined, the highest concentration tested was 10 microM.
NCI60 Cell Culture. NCI60 cell lines were obtained from the NCI Developmental Therapeutics Program Tumor Repository. For each lot of cells, the Repository performed Applied Biosystems AmpFLSTR Identifiler testing with PCR amplification to confirm consistency with the published Identifier STR profile for each cell line. Cells were kept in continuous culture for no more than 20 passages. The optimal seeding densities for each of the cell lines at each time point assessed were determined prior to performing the concentration response studies. Briefly, the NCI60 human tumor lines were grown as monolayers in RPMI 1640 medium supplemented with 10% FBS and 2 mmol/L L-glutamine.
An additional 2 lines were from the NCI60 cell line panel including melanomas, MALME-3M and SK-MEL-2. Pooled donor human umbilical vein endothelial cells (HUVEC, Lonza, cat. CC-2519) and human mesenchymal stem cells (hMSC, Lonza, cat. PT-2501) were purchased from Lonza (Walkersville, MD).
PDMR cell lines were grown in complete medium (DC medium): Dulbecco's modified Eagle's medium (DMEM)/F12 supplemented with 5% fetal bovine serum (FBS), 2 mM L-glutamine, 100 U/mL penicillin and 100 µg/ml streptomycin, 0.4 µg/ml hydrocortisone, 10 ng/ml epidermal growth factor (EGF) recombinant human protein, 24 µg/mL adenine, and 0.1 mg/mL primocin. During culture from frozen stock vials, PDMR cells were cultured in the same medium containing 10 µM Y-27632 (see Table 3). The PDCs were cultured in complete DMEM/F12 media without 10 microM Y-27632 dihydrochloride for at least two passages prior to the screen. The pooled donor HUVEC and hMSC were cultured in endothelial cell growth medium 2 (PromoCell, Heidelberg, Germany, cat. C-22011) and mesenchymal stem cell growth medium 2 (PromoCell, cat. C-28009), respectively. For all experiments, HUVEC and hMSC were used at passages </=5.
For the pre-screen, cell seeding densities were determined from a titration spanning the range from 5,000 to 313 cells per well. The mct-spheroids including 60% malignant cells, 25% HUVEC and 15% MSC dispensed as a mixture into U-bottom Ultra-Low Attachment 384-well plates (Corning, NY)
High-throughput Drug Combination Screening.
Prior to their inoculation into 384-well plates, malignant cells, HUVEC, and hMSC were removed from T flasks using TrypLE express (Thermo Fisher Scientific, cat. 12605036) and harvested by centrifugation for 5 min at 233 x g. […]
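Also: spheroids exposed to drugs for seven days before the viability read.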

CC(=O)Nc1cccc(-n2c(=O)n(C3CC3)c(=O)c3c(Nc4ccc(I)cc4F)n(C)c(=O)c(C)c32)c1 + CC(C)NCC(C(=O)N1CCN(c2ncnc3c2C(C)CC3O)CC1)c1ccc(Cl)cc1 was tested. Which IC50 (second compound 0.3 µM) did it give?
The IC50 was 8.22 nM.

And the IC50 (second compound 0.949 µM)?
The IC50 was 5.23 nM.

What about the IC50 (second compound 3 µM) of the same molecule?
Its IC50 is 3.25 nM.

And the IC50 (second compound 9.49 µM)?
The IC50 was 1.82 nM.

What about the IC50 (second compound 30 µM) of the same molecule?
Its IC50 is 0.326 nM.

What about the viability, T/C (second compound 0.3 µM, first compound 94.9 pM) of the same molecule?
The viability, T/C was 101%.

What about the viability, T/C (second compound 0.3 µM, first compound 0.0003 µM) of the same molecule?
The viability, T/C was 86.7%.

And the viability, T/C (second compound 0.3 µM, first compound 0.000949 µM)?
The viability, T/C was 67.2%.

And the viability, T/C (second compound 0.3 µM, first compound 0.003 µM)?
The viability, T/C was 73.8%.

What about the viability, T/C (second compound 0.3 µM, first compound 0.00949 µM) of the same molecule?
The viability, T/C was 48.8%.

What about the viability, T/C (second compound 0.3 µM, first compound 0.03 µM) of the same molecule?
The viability, T/C was 28.6%.

What about the viability, T/C (second compound 0.949 µM, first compound 94.9 pM) of the same molecule?
Its viability, T/C is 80.8%.

What about the viability, T/C (second compound 0.949 µM, first compound 0.0003 µM) of the same molecule?
The viability, T/C was 84.8%.

And the viability, T/C (second compound 0.949 µM, first compound 0.000949 µM)?
Its viability, T/C is 77.1%.

And the viability, T/C (second compound 0.949 µM, first compound 0.003 µM)?
The viability, T/C was 55.4%.

And the viability, T/C (second compound 0.949 µM, first compound 0.00949 µM)?
Its viability, T/C is 43.2%.

And the viability, T/C (second compound 0.949 µM, first compound 0.03 µM)?
The viability, T/C was 26%.

And the viability, T/C (second compound 3 µM, first compound 94.9 pM)?
Its viability, T/C is 77.9%.

What about the viability, T/C (second compound 3 µM, first compound 0.0003 µM) of the same molecule?
The viability, T/C was 61.6%.

And the viability, T/C (second compound 3 µM, first compound 0.000949 µM)?
The viability, T/C was 64%.

And the viability, T/C (second compound 3 µM, first compound 0.003 µM)?
The viability, T/C was 48.9%.

What about the viability, T/C (second compound 3 µM, first compound 0.00949 µM) of the same molecule?
The viability, T/C was 43.5%.

What about the viability, T/C (second compound 3 µM, first compound 0.03 µM) of the same molecule?
The viability, T/C was 27.1%.

What about the viability, T/C (second compound 9.49 µM, first compound 94.9 pM) of the same molecule?
Its viability, T/C is 72.6%.

And the viability, T/C (second compound 9.49 µM, first compound 0.0003 µM)?
The viability, T/C was 69.3%.

What about the viability, T/C (second compound 9.49 µM, first compound 0.000949 µM) of the same molecule?
Its viability, T/C is 53.5%.

And the viability, T/C (second compound 9.49 µM, first compound 0.003 µM)?
Its viability, T/C is 45.5%.

What about the viability, T/C (second compound 9.49 µM, first compound 0.00949 µM) of the same molecule?
The viability, T/C was 33%.

What about the viability, T/C (second compound 9.49 µM, first compound 0.03 µM) of the same molecule?
The viability, T/C was 18.4%.

And the viability, T/C (second compound 30 µM, first compound 94.9 pM)?
Its viability, T/C is 45.8%.

And the viability, T/C (second compound 30 µM, first compound 0.0003 µM)?
Its viability, T/C is 55.1%.

What about the viability, T/C (second compound 30 µM, first compound 0.000949 µM) of the same molecule?
The viability, T/C was 45.3%.

What about the viability, T/C (second compound 30 µM, first compound 0.003 µM) of the same molecule?
Its viability, T/C is 27.8%.

And the viability, T/C (second compound 30 µM, first compound 0.00949 µM)?
Its viability, T/C is 29.6%.

What about the viability, T/C (second compound 30 µM, first compound 0.03 µM) of the same molecule?
The viability, T/C was 33.6%.

With COc1c(OCCCN2CCOCC2)ccc2c3n(c(=NC(=O)c4cnc(N)nc4)nc12)CCN3 + CC(C)NCC(C(=O)N1CCN(c2ncnc3c2C(C)CC3O)CC1)c1ccc(Cl)cc1 as the molecule, how does the IC50 (second compound 0.3 µM) read?
Its IC50 is 31.3 nM.

What about the IC50 (second compound 0.949 µM) of the same molecule?
Its IC50 is 29 nM.

And the IC50 (second compound 3 µM)?
The IC50 was 26.4 nM.

What about the IC50 (second compound 9.49 µM) of the same molecule?
The IC50 was 21.5 nM.

And the IC50 (second compound 30 µM)?
The IC50 was under 3.16 nM.

What about the viability, T/C (second compound 0.3 µM, first compound 0.00316 µM) of the same molecule?
Its viability, T/C is 74.1%.

What about the viability, T/C (second compound 0.3 µM, first compound 0.01 µM) of the same molecule?
Its viability, T/C is 78.6%.

What about the viability, T/C (second compound 0.3 µM, first compound 0.0316 µM) of the same molecule?
The viability, T/C was 49.7%.

And the viability, T/C (second compound 0.3 µM, first compound 0.1 µM)?
Its viability, T/C is 41.8%.

What about the viability, T/C (second compound 0.3 µM, first compound 0.316 µM) of the same molecule?
The viability, T/C was 43.7%.

And the viability, T/C (second compound 0.3 µM, first compound 1 µM)?
The viability, T/C was 52.2%.

What about the viability, T/C (second compound 0.949 µM, first compound 0.00316 µM) of the same molecule?
Its viability, T/C is 67%.

What about the viability, T/C (second compound 0.949 µM, first compound 0.01 µM) of the same molecule?
Its viability, T/C is 59.8%.

What about the viability, T/C (second compound 0.949 µM, first compound 0.0316 µM) of the same molecule?
The viability, T/C was 51.5%.

What about the viability, T/C (second compound 0.949 µM, first compound 0.1 µM) of the same molecule?
The viability, T/C was 36.3%.

What about the viability, T/C (second compound 0.949 µM, first compound 0.316 µM) of the same molecule?
Its viability, T/C is 37.6%.

And the viability, T/C (second compound 0.949 µM, first compound 1 µM)?
The viability, T/C was 49.3%.

And the viability, T/C (second compound 3 µM, first compound 0.00316 µM)?
Its viability, T/C is 66.8%.

And the viability, T/C (second compound 3 µM, first compound 0.01 µM)?
Its viability, T/C is 53.3%.

What about the viability, T/C (second compound 3 µM, first compound 0.0316 µM) of the same molecule?
The viability, T/C was 46.8%.

And the viability, T/C (second compound 3 µM, first compound 0.1 µM)?
Its viability, T/C is 46%.

What about the viability, T/C (second compound 3 µM, first compound 0.316 µM) of the same molecule?
Its viability, T/C is 41.5%.

What about the viability, T/C (second compound 3 µM, first compound 1 µM) of the same molecule?
Its viability, T/C is 61.7%.

What about the viability, T/C (second compound 9.49 µM, first compound 0.00316 µM) of the same molecule?
The viability, T/C was 60.5%.

And the viability, T/C (second compound 9.49 µM, first compound 0.01 µM)?
Its viability, T/C is 48.3%.

What about the viability, T/C (second compound 9.49 µM, first compound 0.0316 µM) of the same molecule?
Its viability, T/C is 52.5%.

And the viability, T/C (second compound 9.49 µM, first compound 0.1 µM)?
The viability, T/C was 43%.

And the viability, T/C (second compound 9.49 µM, first compound 0.316 µM)?
The viability, T/C was 44%.

What about the viability, T/C (second compound 9.49 µM, first compound 1 µM) of the same molecule?
Its viability, T/C is 38.4%.

And the viability, T/C (second compound 30 µM, first compound 0.00316 µM)?
The viability, T/C was 34%.

And the viability, T/C (second compound 30 µM, first compound 0.01 µM)?
Its viability, T/C is 34.5%.

What about the viability, T/C (second compound 30 µM, first compound 0.0316 µM) of the same molecule?
The viability, T/C was 33.2%.

And the viability, T/C (second compound 30 µM, first compound 0.1 µM)?
Its viability, T/C is 32.9%.

And the viability, T/C (second compound 30 µM, first compound 0.316 µM)?
The viability, T/C was 25.9%.

What about the viability, T/C (second compound 30 µM, first compound 1 µM) of the same molecule?
Its viability, T/C is 41.5%.
